Here are results for seven molecules from patent US20260083750A1, “SMALL MOLECULE INHIBITORS OF KRAS PROTEINS” (MERCK SHARP & DOHME LLC, priority 2022, published 2026).

The target of test [1] is T1, KRAS-G12D (Homo sapiens, UniProt P01116, G12D).
T1 construct: N-terminal biotin-acceptor peptide […]
Briefly: SOS-catalyzed nucleotide exchange assay (Procedure A, TR-FRET). The test is classed as biochemical. The conditions noted are these: 60 min preincubation, SOS + GTP, read-out: KRAS G12D GNE IC50. The text has this:
(§1) Procedure for SOS-Catalyzed Nucleotide Exchange Assay for KRAS-G12C/D/V, G13D, HRAS, and NRAS (Procedure A)
(§2) Recombinant KRAS-G12C protein used in this assay has an additional triple mutation (C51S/C80L/C118S), whereas KRAS-G12D/V, G13D, HRAS and NRAS are in context of their WT protein sequence background. Specifically, the SOS-catalyzed nucleotide exchange assay utilizes a preformed TR-FRET complex containing a specific biotinylated RAS protein (KRAS-G12C/V/D, G13D, HRAS, NRAS; described above) with Bodipy-GDP, and Terbium-streptavidin. Compounds are preincubated with this complex for 60 minutes. Subsequently, recombinant human SOS protein and unlabeled GTP are added to initiate the exchange reaction. Small molecule inhibitors stabilize the Bodipy-GDP complex whereas the untreated protein rapidly exchanges Bodipy-GDP for unlabeled GTP resulting in reduced TR-FRET signal.
(§3) To assemble the preformed TR-FRET complexes, each biotinylated RAS protein is diluted to 2 μM in an EDTA Buffer (20 mM HEPES pH 7.5, 50 mM sodium chloride, 10 mM EDTA, and 0.01% Tween) and incubated at room temperature for one hour. This mixture is then further diluted to 90 nM in an Assay Buffer (20 mM HEPES pH 7.5, 150 mM sodium chloride, 10 mM magnesium chloride, and 0.005% Tween) containing 15 nM of Terbium-Streptavidin (Invitrogen, catalog #PV3577) and 900 nM of Bodipy-GDP (Invitrogen, catalog #G22360) and incubated at room temperature for six hours. It should be noted that this preformed TR-FRET complex for each of the RAS protein were made ahead of time, aliquoted and stored at −80° C. until the day of the experiment.
(§4) Each test compound (10 mM stock in DMSO) is diluted in DMSO to make a final-10-point, 3-fold dilution and is acoustically dispensed into a 384-well assay plate (Corning, catalog #3820) using an Echo 550 (Labcyte). Each well of the assay plate receives 3 μL of a specific 3× RAS preformed TR-FRET complex and 3 μL of Assay Buffer and is incubated at room temperature for 60 minutes (preincubation time). Each well then receives 3 μL of 3× recombinant human SOS protein and GTP (Sigma, G8877) in Assay Buffer and is incubated at room temperature for 30 minutes (G13D), 60 minutes (G12C/D, H/NRAS) or 90 minutes for G12V. The final reaction in each well of […] consists of 3 mM GTP, specific Ras and SOS proteins in the following concentrations: KRAS-G12C/SOS=3 nM/40 nM, KRAS-G12D/SOS=1 nM/40 nM, KRAS-G12V/SOS=1.25 nM/160 nM, KRAS-G13D/SOS=1.25 nM/0 nM, HRAS & NRAS=1.25 nM/40 nM.
(§5) The time-resolved fluorescence resonance energy transfer (TR-FRET) signal is measured on an Envision (PerkinElmer) plate reader: Excitation filter=340 nm; emission1=495 nm; emission2=520 nm; dichroic mirror=D400/D505; delay time=[…]. The signal of each well is determined as the ratio of the emission at 520 nm to that at 495 nm. […] The apparent effect as a function of compound concentration is fit to a four-parameter logistic equation.
In general terms: In TR-FRET formats the signal depends on donor and acceptor labels being close together.

In test [2] the target is T2, KRAS-G12V (Homo sapiens, UniProt P01116, G12V).
T2 construct: N-terminal biotin-acceptor peptide […]
Described as above. The test is classed as biochemical. The settings on record: 60 min preincubation, SOS + GTP, read-out: KRAS G12V GNE IC50.
From the text: as §1, §2, §3, §4, §5

Test [3] deals with T3, KRAS-G12C (C51S/C80L/C118S) (Homo sapiens, UniProt P01116, C118S/C51S/C80L/G12C).
T3 construct: N-terminal biotin-acceptor peptide […]
Described as above. The test is classed as biochemical. The conditions noted are these: 60 min preincubation, SOS + GTP, read-out: KRAS G12C GNE IC50.
From the text: as §1, §2, §3, §4, §5

The target of test [4] is T4, KRAS-G13D (Homo sapiens, UniProt P01116, G13D).
T4 construct: N-terminal biotin-acceptor peptide […]
The test is described as above. The test is classed as biochemical. The conditions noted are these: 60 min preincubation, GTP, read-out: KRAS G13D GNE IC50.
From the text: as §1, §2, §3, §4, §5

Test [5] concerns the target HRAS (Homo sapiens, UniProt P01112). Described as above. The test is classed as biochemical. The settings on record: 60 min preincubation, SOS + GTP, read-out: HRAS GNE IC50.
From the text: as §1, §2, §3, §4
(§6) The time-resolved fluorescence resonance energy transfer (TR-FRET) signal is measured on an Envision (PerkinElmer) plate reader: Excitation filter=340 nm; emission1=495 nm; emission2=520 nm; dichroic mirror=D400/D505; delay time=[…]. The signal of each well is determined as the ratio of the emission at 520 nm to that at 495 nm. Percent effect of each well is determined after normalization to control wells containing DMSO (no effect) or a saturating concentration of inhibitor (max effect). The apparent effect as a function of compound concentration is fit to a four-parameter logistic equation.

Test [6] concerns the target NRAS (Homo sapiens, UniProt P01111). The test is described as above. It is filed as biochemical. The settings on record: 60 min preincubation, SOS + GTP, read-out: NRAS GNE IC50.
From the text: as §1, §2, §3, §4, §6

In test [7] the test system is PANC08.13 cells (homozygous KRAS-G12D activating mutation). Put plainly: Cellular phospho-ERK assay in G12D cell line. The test is classed as cell-based. The settings on record: Homo sapiens, PANC-08-13, 2 hours compound incubation, ratio of p-ERK vs. total ERK, read-out: PANC 0813 pERK IC50. On the procedure: (§7) Procedure for Cellular Phospho-ERK Assay in G12D and G12V Cell Lines
(§8) PANC08.13 cells (ATCC® CRL-2551™), containing homozygous KRAS-G12D activating mutation, were cultured in growth medium made of RPMI1640-GlutaMAX™—I (ThermoFisher Scientific 61870) containing 15% heat inactivated fetal bovine serum (ThermoFisher Scientific 10091148)). SW620 cells (ATCC® […]), containing homozygous KRAS-G12V activating mutation, were cultured in growth medium that contains RPMI 1640-GlutaMAX™—I (ThermoFisher Scientific 61870) containing 10% heat inactivated fetal bovine serum (ThermoFisher Scientific 10091148).
(§9) Cells for the assay were harvested in growth medium after TrypLE (ThermoFisher scientific 12604021) digestion and were seeded in a 384-well collagen coated cell culture plate (Corning 356702) at a density of 10,000-15,000 cells/20 uL/well, and incubated at 37° C., 5% CO2 overnight. The compound (with 10 mM stock concentration) dose-response titrations were prepared [30 μM final ERK detection assay concentration and 1:3 dilutions, 10-point dose response] and appropriate amounts (270 nL) of test compounds were dispensed in a 384-well intermediate plate using an Echo 550 liquid handler. 30 uL/well of RPMI medium 1640-GlutaMAX™—I was added to the intermediate plate and the contents of the intermediate plate (10 uL/well) were then transferred to the 384-well collagen coated cell culture plate, which was incubated at 37° C., 5% CO2 for 2 hours. After removal of medium from the collagen coated cell culture plate, cells were lysed in lysis buffer from Alpha SureFire® Ultra™ Multiplex p-ERK and total ERK assay kit (PerkinElmer MPSU-PTERK) containing Halt™ Protease and Phosphatase inhibitor cocktail (ThermoFisher Scientific 78446) at room temperature with constant shaking at 300 rpm for 30 minutes. The cell lysates were then transferred to an OptiPlate-384 plate (PerkinElmer 6005620), and the phosphorylation of ERK (p-ERK) and total ERK levels were detected by Alpha SureFire® Ultra™ Multiplex p-EEK kit and total ERK assay kit (PerkinElmer MPSU-PTERK) following the manufacturer's protocol. Assay plates were read on a EnVision Multimode Plate Reader (PerkinElmer), and the ratio of p-ERK vs. total ERK in each well was used as the final readout. Dose response curves were analyzed using a 4-parameter logistic model to calculate IC50 values using Spotfire software.

Test [8] deals with SW620 cells (homozygous KRAS-G12V activating mutation). Briefly: Cellular phospho-ERK assay in G12V cell line. It is filed as cell-based. The conditions noted are these: Homo sapiens, SW-620, 2 hours compound incubation, ratio of p-ERK vs. total ERK, read-out: SW620 pERK IC50. As for the experimental part:
as §7, §8, §9

T4 sequence (P01116 with tags, fused parts or gaps isoform P01116-2 G13D): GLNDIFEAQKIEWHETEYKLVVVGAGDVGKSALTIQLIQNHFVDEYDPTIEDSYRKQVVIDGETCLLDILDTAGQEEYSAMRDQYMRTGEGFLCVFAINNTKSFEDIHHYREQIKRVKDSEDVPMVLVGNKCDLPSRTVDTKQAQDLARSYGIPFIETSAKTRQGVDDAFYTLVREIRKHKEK
T1 sequence (P01116 with tags, fused parts or gaps isoform P01116-2 G12D): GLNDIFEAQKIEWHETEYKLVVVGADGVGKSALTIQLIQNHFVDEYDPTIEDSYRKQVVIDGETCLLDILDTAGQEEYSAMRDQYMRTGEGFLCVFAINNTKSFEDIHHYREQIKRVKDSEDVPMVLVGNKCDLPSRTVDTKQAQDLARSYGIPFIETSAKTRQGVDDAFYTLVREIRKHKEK
T3 sequence (P01116 with tags, fused parts or gaps isoform P01116-2 G12C/C51S/C80L/C118S): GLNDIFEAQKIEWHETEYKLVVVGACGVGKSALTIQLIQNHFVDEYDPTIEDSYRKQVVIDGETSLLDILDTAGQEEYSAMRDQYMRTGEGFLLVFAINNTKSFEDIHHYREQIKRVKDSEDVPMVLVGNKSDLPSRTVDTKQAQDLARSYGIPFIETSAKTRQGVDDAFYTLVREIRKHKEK
Sequence of HRAS (P01112 with tags, fused parts or gaps): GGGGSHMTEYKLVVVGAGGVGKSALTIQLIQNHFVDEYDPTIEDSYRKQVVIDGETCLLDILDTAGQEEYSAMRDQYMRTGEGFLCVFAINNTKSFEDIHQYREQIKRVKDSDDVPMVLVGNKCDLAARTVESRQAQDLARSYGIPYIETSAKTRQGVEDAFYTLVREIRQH
Sequence of NRAS (P01111 with tags, fused parts or gaps): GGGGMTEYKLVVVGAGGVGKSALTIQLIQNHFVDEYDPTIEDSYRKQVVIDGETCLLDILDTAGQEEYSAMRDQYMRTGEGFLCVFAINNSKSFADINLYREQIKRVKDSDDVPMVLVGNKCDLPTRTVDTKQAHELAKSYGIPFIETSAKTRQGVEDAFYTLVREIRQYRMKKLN
T2 sequence (P01116 with tags, fused parts or gaps isoform P01116-2 G12V): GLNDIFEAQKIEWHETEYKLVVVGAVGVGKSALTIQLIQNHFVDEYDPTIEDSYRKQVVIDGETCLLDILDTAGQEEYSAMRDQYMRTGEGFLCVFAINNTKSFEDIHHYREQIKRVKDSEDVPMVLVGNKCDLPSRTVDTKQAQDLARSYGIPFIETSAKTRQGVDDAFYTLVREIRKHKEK

One may read the IC50 as the concentration that inhibits the measured activity by half. In the case of `N#Cc1c(N)sc2c(F)ccc(-c3c(C(F)(F)F)cc4c(N5CCCOCC5)nc(OC[C@@]56CCCN5C[C@H](F)C6)nc4c3F)c12` (single isomer, unassigned) [Ex. 35], the concentration for half-maximal inhibition (IC50) in test [1] was 0.00233 µM; in test [2], 0.00124 µM; in test [3], 0.00551 µM; in test [4], 0.00113 µM; in test [5] it was 1.17 µM; in test [6], greater than 11.1 µM. In test [7], the half-maximal inhibitory concentration (IC50) amounted to 0.0123 µM.

On to `C[C@@H]1CCCCCN1c1nc(OC[C@@]23CCCN2C[C@H](F)C3)nc2c(F)c(-c3ccc(F)c4sc(N)c(C#N)c34)c(Cl)cc12` [Ex. 2, 2-amino-4-(6-chloro-8-fluoro-2-(((2R,7aS)-2-fluorotetrahydro-1H-pyrrolizin-7a(5H)-yl)methoxy)-4-((R)-2-methylazepan-1-yl)quinazolin-7-yl)-7-fluorobenzo[b]thio-phene-3-carbonitrile], for which the IC50 in test [1] turned out to be 0.00861 µM; in test [2], 0.0132 µM; in test [7] it was 0.372 µM; in test [8] it was 0.408 µM.

As for `N#Cc1c(N)sc2c(F)ccc(-c3c(Br)cc4c(N5C6COCC5C6)nc(OC[C@@]56CCCN5C[C@H](F)C6)nc4c3F)c12` [Ex. 36, 4-(4-(3-oxa-6-azabicyclo[3.1.1]heptan-6-yl)-6-bromo-8-fluoro-2-(((2R,7aS)-2-fluorotetrahydro-1H-pyrrolizin-7a(5H)-yl)methoxy)quinazolin-7-yl)-2-amino-7-fluorobenzo[b]thiophene-3-carbonitrile], the IC50 in test [1] is 0.00934 µM; in test [3], 0.0371 µM; in test [4] it was 0.0202 µM; in test [5], greater than 11.1 µM; in test [6], greater than 11.1 µM; in test [7], 0.103 µM.

As to `COCC1CCOCCN1c1nc(OC[C@@]23CCCN2C[C@H](F)C3)nc2c(F)c(-c3ccc(F)c4sc(N)c(C#N)c34)c(Cl)cc12` (stereo partly drawn) [compound 16, 2-amino-4-(6-chloro-8-fluoro-2-(((2R,7aS)-2-fluorotetrahydro-1H-pyrrolizin-7a(5H)-yl)methoxy)-4-(5-(methoxymethyl)-1,4-oxazepan-4-yl)quinazolin-7-yl)-7-fluorobenzo[b]thio-phene-3-carbonitrile], the half-inhibitory concentration (IC50) in test [1] is 0.0252 µM; in test [2], 0.00958 µM; in test [3], 0.0147 µM; in test [4] it was 0.0101 µM; in test [5] it was greater than 11.1 µM; in test [6], greater than 11.1 µM. The IC50 in test [7] came to 0.274 µM.

In the case of `N#Cc1c(N)sc2c(F)ccc(-c3c(Cl)cc4c(N5CCOCCC5C5CC5)nc(OC[C@@]56CCCN5C[C@H](F)C6)nc4c3F)c12` (stereo partly drawn) [compound 17, 2-amino-4-(6-chloro-4-(5-cyclopropyl-1,4-oxazepan-4-yl)-8-fluoro-2-(((2R,7aS)-2-fluorotetrahydro-1H-pyrrolizin-7a(5H)-yl)methoxy)quinazo-lin-7-yl)-7-fluorobenzo[b]thio-phene-3-carbonitrile], the IC50 in test [1] is 0.188 µM; in test [2], 0.0441 µM; in test [3], 0.0511 µM; in test [4], 0.0637 µM; in test [5], greater than 11.1 µM; in test [6] it was greater than 11.1 µM. In test [7], the 50% inhibitory concentration (IC50) turned out to be 2.26 µM.

As for `C[C@H]1CCOCCN1c1nc(OC[C@]2(CN(C)C)CC2(F)F)nc2c(F)c(-c3ccc(F)c4sc(N)c(C#N)c34)ncc12` [compound 22, 2-amino-4-(2-(((R)-1-((dimethylamino)meth-yl)-2,2-difluorocyclopropyl)methoxy)-8-fluoro-4-((S)-5-methyl-1,4-oxazepan-4-yl)pyrido[4,3-d]pyrimidin-7-yl)-7-fluorobenzo[b]thiophene-3-carbonitrile], the IC50 was 0.253 µM in test [1]; 0.0495 µM in test [2]; 0.0226 µM in test [3]; 0.0448 µM in test [4]; greater than 11.1 µM in test [5]; greater than 11.1 µM in test [6]. The half-inhibitory concentration (IC50) in test [7] was determined as 0.413 µM.

For `CN1CCC[C@H]1COc1nc(N2CCCOCC2)c2cc(Br)c(-c3ccc(F)c4sc(N)c(C#N)c34)c(F)c2n1` [compound 38, 2-amino-4-(6-bromo-8-fluoro-2-(((S)-1-methylpyrrolidin-2-yl)methoxy)-4-(1,4-oxazepan-4-yl)quinazolin-7-yl)-7-fluorobenzo[b]thiophene-3-carbonitrile], the IC50 in test [1] was 0.0471 µM; in test [2] it was 0.00897 µM; in test [3], 0.0305 µM; in test [4] it was 0.0172 µM; in test [5], greater than 11.1 µM; in test [6], greater than 11.1 µM. Moreover, the IC50 in test [7] was 0.3 µM.
